Measured values taken from US20220112225A1, “ANANDAMIDE COMPOUNDS” (priority 2019, published 2022).

Columns and labels:
[1] = IV JVC rat PK study at 3 mg/kg; format: in vivo; conditions: male Sprague Dawley rats, 3 mg/kg IV
Experimental: Compound 3 was intravenously dosed at 3 mg/kg into a group of 3 individually housed, normally fed male Sprague Dawley rats that had been fitted with jugular vein catheters (JVCs). Dosing was performed with 2 mL/kg dosing volumes with 5% DMSO 95% water used as a dosing vehicle. Serial blood samples (150 μL) were taken from each animal at each time point post dose (0.08 h, 0.25 h, 0.5 h, 1 h, 2 h, 4 h, 8 h, and 24 h) into heparinised Eppendorf tubes (containing 5 μL heparin) on ice containing an equal quantity of water. Two 100 μL aliquots were then placed in duplicate 96 well plates on dry ice. Samples were stored in the freezer at −20° C. until bioanalysis.
(§1) Samples were defrosted and acetonitrile (containing internal standard) was used to precipitate the proteins. All the samples were mixed, centrifuged and the supernatants analysed by LC-MS-MS according to the following procedures: • 1. 20 μL plasma was transferred to a v-bottom 96-well plate. • 2. 80 μL acetonitrile (ACN) containing IS was added to each well. • 3. The plate was sealed and gently mixed for approximately 30 s. • 4. Plates were centrifuged for 10 min at 3500 rpm. • 5. 50 μL supernatant was transferred to a fresh v-bottom 96-well plate containing 100 μL MilliQ water.
(§2) Plates were thermo-sealed and stored at 4° C. until analysis. The resulting PK parameters are shown below in Table 1.

[2] = PO JVC rat PK study at 10 mg/kg; format: in vivo; conditions: male Sprague Dawley rats
Experimental: Compound 3 was orally dosed at 10 mg/kg to a group of 3 individually housed male Sprague Dawley rats that were fasted overnight and fed 4 h post-dose, the rats were fitted with JVCs. Dosing was performed with 5 mL/kg dosing volumes with 5% DMSO 95% water used as a dosing vehicle. Serial blood (150 μL) samples were taken from each animal at each timepoint (0.25 h, 0.5 h, 1 h, 2 h, 4 h, 6 h, 8 h, and 24 h) into heparinised Eppendorf tubes (containing 5 μL heparin) on ice containing an equal quantity of water. Two 100 μL aliquots were then placed in duplicate 96 well plates on dry ice. Samples were stored in the freezer at −20° C. until bioanalysis.
as §1, §2

[3] = In vitro brain homogenate stability, rat; format: in vitro ADME
Experimental: (§3) Fresh rodents brains were snap frozen immediately after collection and the assay performed on the same day. Brains were pre-incubated at 37° C. before being spiked with test compound at 1 μM. Samples were collected across 6 time points (0, 10, 20, 30, 45 and 60 minutes) and crashed in cold acetonitrile containing an internal standard (Leucine Enkephalin) and kept on ice until all samples had been collected. The samples were then shaken and centrifuged. 100 μL of supernatant was transferred to a plate containing 50 μL of MilliQ water and mixed. These plates were analyzed by LC-MS/MS over the 6 time points, where the percentage of test compound remaining was calculated using the peak area of the initial timepoint (T=0 minutes) as 100%. The natural log of the percentage remaining was then calculated. The natural log of the percentage remaining versus time (minutes) was plotted on a graph and the gradient of this graph was used to calculate the elimination rate constant (K), The half-life (t1/2) of test compound was calculated using the natural log of 2 divided by the elimination rate constant. The percentage of Compound 2 formed is reported below in Tables 4-6. FIGS. 9A-9F show results of the brain homogenate stability conducted with representative compounds of the Examples.

[4] = In vitro brain homogenate stability, mouse; format: in vitro ADME
Experimental: as §3

[5] = one hour incubation, increasing formation of Compound 2

## 2-(5Z,8Z,11Z,14Z)-icosa-5,8,11,14-tetraenamidoethyl (trimethylammonio) ethylphosphate [Compound 3]
[1]
  AUC0-inf: 2561.0 ng·h/mL
  AUC0-t: 2462.2 ng·h/mL
  CI: 31 mL/min/kg
  Vdss: 6.3 L/kg
  t1/2: 7.4 h
[2]; 10 mg/kg PO
  AUC0-inf: 2426.6 ng·h/mL
  AUC0-t: 2348.5 ng·h/mL
  Cmax: 372 ng/mL
  Tmax: 2.5 h
[2]; 10 mg/kg PO vs 3 mg/kg IV
  Bioavailability: 28 % F
[3]; 37° C., test compound at 1 μM
  Rat t1/2: 0.933 h
[3]; [5]
  Clearance in brain homogenate stability study (in words): demonstrated a level of clearance
[4]; 37° C., test compound at 1 μM
  Mouse t1/2: 1.67 h
[4]; [5]
  Clearance in brain homogenate stability study (in words): demonstrated a level of clearance
